According to patent US10392389B2, “Heterocyclic compounds for the inhibition of PASK” (BioEnergenix, LLC, priority 2012, dated 2019):

Legend:
[1] = biological target: T1, CK2a2 (NP_001887; human full-length protein, GST tagged) (Homo sapiens, UniProt P19784); assay: Biochemical Assay for CK2 Activity; conditions: 33P-ATP radiochemical assay, CK2 sub [RRRDDDSDDD]
T1 construct: human full-length protein, GST tagged; GST; host or cells: insect cells
Procedure: Biochemical Assay for CK2 Activity
(§1) Purified CK2a2 (NP_001887; human full-length protein, GST tagged) from insect cells (final concentration 1.2 nM) is added to freshly prepared Base Reaction Buffer containing 20 mM Hepes (pH 7.5), 10 mM MgCl2, 1 mM EGTA, 0.02% Brij35, 0.02 mg/ml BSA, 0.1 mM Na3VO4, 2 mM DTT, 1% DMSO and CK2 sub [RRRDDDSDDD] (20 μM final). Test compounds in DMSO are then added and the mixture, followed by delivery of ^33P-ATP (specific activity 0.01 μCi/μl final) to initiate the reaction. The kinase reaction is incubated for 120 min at room temperature. The entire reaction mixture is washed through onto a P81 Phosphocellulose paper and washed three times for 10 minutes in 75 mM phosphoric acid and once in methanol prior to drying and scintillation counting.

PASK (Invitrogen) = biological target: T2, PASK (Invitrogen) (Homo sapiens, UniProt Q96RG2); assay: PAS Kinase FRET Assay; assay type: biochemical; conditions: PAS kinase TR-FRET assay (665 nm/615 nm); read-out: IC50 Kinase Domain
T2 construct: IC50 Kinase Domain; purchased Invitrogen
Method in brief: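 PASK phosphorylates a ULight-peptide with ATP in 50 mM HEPES, 10 mM MgCl2, 1 mM EGTA, 0.01% Tween-20, 2 mM DTT for 2 h at 25° C in the dark. Compounds are added as 4× serial dilutions (top 12×10^−5 M at 4×). After stopping, an Eu anti-phospho-substrate antibody is added for 1 h and TR-FRET is read at 665/615 nm.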

PASK = biological target: T3, PASK (UniProt #Q96RG2; human recombinant N-terminal GST tagged construct, residues 879-1323) (Homo sapiens, UniProt Q96RG2); assay: PASK ATP Radiochemical Assay; assay type: biochemical; conditions: 33P-ATP, Myelin Basic Protein substrate, read-out: IC50 Kinase Domain
T3 construct: N-terminal GST tagged construct, residues 879-1323; GST (N); host or cells: insect cells
Procedure: Biochemical Assay for hPASK Activity
PASK ATP Radiochemical Assay
as §1, with “PASK (UniProt #Q96RG2;” for “CK2a2 (NP_001887;”, “recombinant N-terminal” for “full-length protein,”, “tagged construct, residues 879-1323)” for “tagged)”, “5” for “1.2”, “HEPES” for “Hepes”, “Myelin Basic Protein” for “CK2 sub [RRRDDDSDDD]”

[2] = biological target: T4, PIM1 (NP_002639; human full-length protein, 6×His tagged) (Homo sapiens, UniProt P11309); assay: Biochemical Assay for PIM1 Activity; conditions: 33P-ATP radiochemical assay, S6K/Rsk2 peptide 2 substrate
T4 construct: human full-length protein, 6×His tagged; 6xHis; host or cells: insect cells
Procedure: Biochemical Assay for PIM1 Activity
as §1, with “PIM1 (NP_002639;” for “CK2a2 (NP_001887;”, “6×His” for “GST”, “1.0” for “1.2”, “substrate S6K/Rsk2 peptide 2 [KKRNRTLTK]” for “CK2 sub [RRRDDDSDDD]”, “10” for “0.01”

T4 sequence (P11309 whole entry): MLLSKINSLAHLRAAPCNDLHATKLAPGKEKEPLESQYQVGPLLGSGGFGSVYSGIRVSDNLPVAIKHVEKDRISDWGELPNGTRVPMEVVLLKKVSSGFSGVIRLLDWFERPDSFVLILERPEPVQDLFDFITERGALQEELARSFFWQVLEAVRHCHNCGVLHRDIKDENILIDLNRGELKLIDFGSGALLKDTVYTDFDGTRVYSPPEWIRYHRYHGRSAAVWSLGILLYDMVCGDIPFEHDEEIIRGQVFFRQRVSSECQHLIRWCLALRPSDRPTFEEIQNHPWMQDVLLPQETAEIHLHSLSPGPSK
T3 sequence (Q96RG2 879-1323, stated change not applied): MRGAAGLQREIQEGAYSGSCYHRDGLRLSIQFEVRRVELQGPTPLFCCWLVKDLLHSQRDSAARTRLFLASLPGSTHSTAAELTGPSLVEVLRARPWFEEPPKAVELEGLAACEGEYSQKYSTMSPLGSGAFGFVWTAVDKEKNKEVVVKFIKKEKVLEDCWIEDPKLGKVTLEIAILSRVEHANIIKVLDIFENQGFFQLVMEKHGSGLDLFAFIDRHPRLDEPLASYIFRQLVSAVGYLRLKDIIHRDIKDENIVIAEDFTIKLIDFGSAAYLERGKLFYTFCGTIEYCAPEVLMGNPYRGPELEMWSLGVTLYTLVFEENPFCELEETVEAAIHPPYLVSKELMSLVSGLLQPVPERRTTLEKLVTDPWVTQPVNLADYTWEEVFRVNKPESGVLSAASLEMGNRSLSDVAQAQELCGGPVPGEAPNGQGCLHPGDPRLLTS
T1 sequence (P19784 whole entry): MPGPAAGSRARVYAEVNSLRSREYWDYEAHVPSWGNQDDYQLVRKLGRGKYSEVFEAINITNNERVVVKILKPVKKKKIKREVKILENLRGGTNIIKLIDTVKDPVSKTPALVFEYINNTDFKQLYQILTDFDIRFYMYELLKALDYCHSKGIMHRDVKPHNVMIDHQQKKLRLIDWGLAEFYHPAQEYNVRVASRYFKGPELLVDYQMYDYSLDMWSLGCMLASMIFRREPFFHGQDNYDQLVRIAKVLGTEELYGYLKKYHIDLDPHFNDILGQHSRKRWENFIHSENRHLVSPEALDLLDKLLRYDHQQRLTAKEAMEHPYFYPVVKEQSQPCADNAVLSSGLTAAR
T2 sequence (Q96RG2 999-1251 limits assumed): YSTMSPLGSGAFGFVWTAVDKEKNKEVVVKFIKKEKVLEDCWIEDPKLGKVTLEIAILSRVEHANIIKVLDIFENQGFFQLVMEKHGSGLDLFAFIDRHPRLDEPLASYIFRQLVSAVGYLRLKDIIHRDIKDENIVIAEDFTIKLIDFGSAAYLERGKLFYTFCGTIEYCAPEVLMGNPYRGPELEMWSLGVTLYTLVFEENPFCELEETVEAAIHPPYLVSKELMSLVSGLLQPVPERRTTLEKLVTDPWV

| Compound | IC50 [1] [µM] | IC50 (PASK (Invitrogen)) [µM] | IC50 (PASK) [µM] | IC50 [2] [µM] |
| --- | --- | --- | --- | --- |
| CCc1coc(-c2cnn3c(=O)cc(-c4ccc5[nH]nnc5c4)[nH]c23)n1 [Example 15, 5-(1H-1,2,3-benzotriazol-5-yl)-3-(4-ethyl-1,3-oxazol-2-yl)-4H,7H-pyrazolo[1,5-a]pyrimidin-7-one] | ≤ 10 | ≤ 10 | ≤ 10 | ≤ 10 |
| CCc1coc(-c2cnn3c(=O)cc(-c4ccc5c(c4)OCO5)[nH]c23)n1 [Example 16, 5-(2H-1,3-benzodioxol-5-yl)-3-(4-ethyl-1,3-oxazol-2-yl)-4H,7H-pyrazolo[1,5-a]pyrimidin-7-one] | ≤ 10 | ≤ 10 | ≤ 10 | ≤ 10 |
| COc1cc(-c2cc(=O)n3ncc(-c4nc(C)co4)c3[nH]2)ccc1Cl [Example 18, 5-(4-chloro-3-methoxyphenyl)-3-(4-methyl-1,3-oxazol-2-yl)-4H,7H-pyrazolo[1,5-a]pyrimidin-7-one] | ≤ 10 | ≤ 10 | ≤ 10 | ≤ 10 |
| COc1cc(-c2cc(=O)n3ncc(-c4ncco4)c3[nH]2)ccc1Cl [Example 19, 5-(4-chloro-3-methoxyphenyl)-3-(1,3-oxazol-2-yl)-4H,7H-pyrazolo[1,5-a]pyrimidin-7-one] | ≤ 10 | ≤ 10 | ≤ 10 | ≤ 10 |
| CCn1ncc2cc(-c3cc(=O)n4ncc(-c5ncco5)c4[nH]3)ccc21 [Example 20, 5-(1-Ethyl-1H-indazol-5-yl)-3-(1,3-oxazol-2-yl)-4H,7H-pyrazolo[1,5-a]pyrimidin-7-one] | ≤ 10 | ≤ 10 | ≤ 10 | ≤ 10 |
| CCOc1cc(-c2cc(=O)n3ncc(-c4nc(C)co4)c3[nH]2)ccc1Cl [Example 21, 5-(4-chloro-3-ethoxyphenyl)-3-(4-methyl-1,3-oxazol-2-yl)-4H,7H-pyrazolo[1,5-a]pyrimidin-7-one] | > 10 | ≤ 10 | ≤ 10 | ≤ 10 |
| O=c1cc(-c2ccc3[nH]ncc3c2)[nH]c2c(-c3ncco3)cnn12 [Example 23, 5-(1H-indazol-5-yl)-3-(oxazol-2-yl)pyrazolo[1,5-a]pyrimidin-7(4H)-one] | ≤ 10 | ≤ 10 | ≤ 10 | ≤ 10 |
| Cc1cnc(-c2cnn3c(=O)cc(-c4ccc5[nH]ncc5c4)[nH]c23)o1 [Example 24, 5-(1H-indazol-5-yl)-3-(5-methyloxazol-2-yl)pyrazolo[1,5-a]pyrimidin-7(4H)-one] | ≤ 10 | ≤ 10 | ≤ 10 | ≤ 10 |
| COc1cc(-c2cc(=O)n3ncc(-c4ccn(C)n4)c3[nH]2)ccc1Cl [Example 54, 5-(4-chloro-3-methoxyphenyl)-3-(1-methyl-1H-pyrazol-3-yl)pyrazolo[1,5-a]pyrimidin-7(4H)-one] | ≤ 10 | ≤ 10 | ≤ 10 | ≤ 10 |
| CCn1ncc2cc(-c3cc(=O)n4ncc(-c5cc[nH]n5)c4[nH]3)ccc21 [Example 55, 5-(1-ethyl-1H-indazol-5-yl)-3-(1H-pyrazol-3-yl)pyrazolo[1,5-a]pyrimidin-7(4H)-one] | ≤ 10 | ≤ 10 | ≤ 10 | ≤ 10 |
| COc1cc(-c2cc(=O)n3ncc(-c4ncc(C)s4)c3[nH]2)ccc1Cl [Example 56, 5-(4-chloro-3-methoxyphenyl)-3-(5-methylthiazol-2-yl)pyrazolo[1,5-a]pyrimidin-7(4H)-one] | ≤ 10 | ≤ 10 | ≤ 10 | ≤ 10 |
| O=c1cc(-c2ccc(Cl)cc2)[nH]c2c(-c3nccs3)cnn12 [Example 57, 5-(4-chlorophenyl)-3-(thiazol-2-yl)pyrazolo[1,5-a]pyrimidin-7(4H)-one] | ≤ 10 | ≤ 10 | ≤ 10 | ≤ 10 |
| Cc1csc(-c2cnn3c(=O)cc(-c4ccc(Cl)cc4)[nH]c23)n1 [Example 58, 5-(4-chlorophenyl)-3-(4-methylthiazol-2-yl)pyrazolo[1,5-a]pyrimidin-7(4H)-one] | ≤ 10 | ≤ 10 | ≤ 10 | ≤ 10 |
| CCn1ncc2cc(-c3cc(=O)n4ncc(-c5noc6ccccc56)c4[nH]3)ccc21 [Example 59, 3-(benzo[d]isoxazol-3-yl)-5-(1-ethyl-1H-indazol-5-yl)pyrazolo[1,5-a]pyrimidin-7(4H)-one] | ≤ 10 | ≤ 10 | ≤ 10 | ≤ 10 |
| CCn1ncc2cc(-c3cc(=O)n4ncc(-c5ncc(-c6ccccc6)o5)c4[nH]3)ccc21 [Example 64, 5-(1-ethyl-1H-indazol-5-yl)-3-(5-phenyloxazol-2-yl)pyrazolo[1,5-a]pyrimidin-7(4H)-one] | ≤ 10 | ≤ 10 | ≤ 10 | ≤ 10 |
| CCn1nccc1-c1cnn2c(=O)cc(-c3ccc(Cl)c(OC)c3)[nH]c12 [Example 65, 5-(4-chloro-3-methoxyphenyl)-3-(1-ethyl-1H-pyrazol-5-yl)pyrazolo[1,5-a]pyrimidin-7(4H)-one] | ≤ 10 | ≤ 10 | ≤ 10 | ≤ 10 |
| CCn1nccc1-c1cnn2c(=O)cc(-c3ccc(Cl)cc3)[nH]c12 [Example 66, 5-(4-chlorophenyl)-3-(1-ethyl-1H-pyrazol-5-yl)pyrazolo[1,5-a]pyrimidin-7(4H)-one] | ≤ 10 | ≤ 10 | ≤ 10 | ≤ 10 |
| CCn1nccc1-c1cnn2c(=O)cc(-c3ccc4c(cnn4CC)c3)[nH]c12 [Example 67, 5-(1-ethyl-1H-indazol-5-yl)-3-(1-ethyl-1H-pyrazol-5-yl)pyrazolo[1,5-a]pyrimidin-7(4H)-one] | ≤ 10 | ≤ 10 | ≤ 10 | ≤ 10 |
| COc1cc(-c2cc(=O)n3ncc(-c4cc(C)n[nH]4)c3[nH]2)ccc1Cl [Example 69, 5-(4-chloro-3-methoxyphenyl)-3-(3-methyl-1H-pyrazol-5-yl)pyrazolo[1,5-a]pyrimidin-7(4H)-one] | ≤ 10 | ≤ 10 | ≤ 10 | ≤ 10 |
| O=c1cc(-c2ccc(Cl)c(Cl)c2)[nH]c2c(-c3cc[nH]n3)cnn12 [Example 70, 5-(3,4-dichlorophenyl)-3-(1H-pyrazol-3-yl)pyrazolo[1,5-a]pyrimidin-7(4H)-one] | ≤ 10 | ≤ 10 | ≤ 10 | ≤ 10 |
| Cn1ncc2cc(-c3cc(=O)n4ncc(-c5cc[nH]n5)c4[nH]3)ccc21 [Example 71, 5-(1-methyl-1H-indazol-5-yl)-3-(1H-pyrazol-3-yl)-4H,7H-pyrazolo[1,5-a]pyrimidin-7-one] | ≤ 10 | ≤ 10 | ≤ 10 | ≤ 10 |
| Cn1ncc2cc(-c3cc(=O)n4ncc(-c5ncco5)c4[nH]3)ccc21 [Example 73, 5-(1-methyl-1H-indazol-5-yl)-3-(oxazol-2-yl)-4H,7H-pyrazolo[1,5-a]pyrimidin-7-one] | ≤ 10 | ≤ 10 | ≤ 10 | ≤ 10 |
